Test results: patent US12527833B2, “Pharmaceutical composition made from hydrophobic phytochemicals dispersed in sesame oil to enhance bioactivity” (ARJUNA NATURAL PVT. LTD., priority 2017, dated 2026)

Test system: Acute Musculoskeletal Pain
Assay: Randomized active controlled study of BSC-4 in adult patients with acute musculoskeletal pain (NRS, PRS, PPR, MPR, PGIC)
Format: in vivo, human
Description: A Randomized Active Controlled Study to Assess the Efficacy of Sesame Oil Loaded with Boswellia Extract and Curcuminoid Composition (BSC-4) in Adult Patients with Acute Musculoskeletal Pain. Sample size for the study: 88 Subjects were randomized with 1:1 ratio of male and female in each group. Subject selection—Subjects were selected from the screening site who were ready to give a voluntary informed consent and who meets study inclusion criteria. • 1. Adult patient, Male or female between 18-65 years of age. • 2. A score of 5 or above on the Numerical Rating Scale. • 3. Patients having acute musculoskeletal pain which occurred within 24 hours before presentation e.g. headache musculoskeletal injuries, myalgia, neck pain, limb pain, low back pain, joint pain, widespread musculoskeletal pain, painful uncomplicated acute soft tissue injury of the upper or lower extremity, including acute injuries of ligaments, tendons, or muscles (including Grade 1), not requiring admittance to hospital. • 4. Willing to give voluntary informed consent. Visit 1, randomization; subject were provided BSC-4 or Paracetamol as per the pre-documented randomization list accessed only by pharmacist. Patients were entering the NRS, PRS, and PGIC in the diary before and after 2 hour of taking the dose. Follow up calls were made over phone for patents compliance to treatment, diary completion. The follow up on day 3 the patient were reminded to bring the diary for review and bottle for IP accountability at the next visit. Visit 2, Physical examination, vitals, and patient diary were checked. Post dose (2 hours) pain intensity using NRS, pain relief using categorical PRS, and patient's global impression of change (PGIC) were recoded. Visit 3, next visit on 6th day from the visit 1, Patients entered the NRS, PRS, and PGIC in the diary before and after 2 hrs of taking the dose. Follow up calls were made over phone for their compliance to treatment, diary completion. The follow up on day 6 the patient were reminded to bring the diary for review and bottle for IP accountability at the next visit. Physical examination, vitals, and patient diary were checked. Post dose (2 hours) pain intensity using NRS, pain relief using categorical PRS, and patient's global impression of change (PGIC) were recorded. The NRS is an 11-point scales in which 0 represents ‘no pain’ and 10 represents the worst pain possible. The patient were asked to rate their pain intensity as a number from 0 to 10. Alternatively, for better conception it may be explained as below. The NRS were recorded on screening and those patients who have 5 or above score only were enrolled into the study. After the first dose the patient were give the pain intensity rating every 30 minutes up to 6 hours post dose for calculating SPID 6 hrs. The NRS was included in the diary and the patient was required to give the pain intensity every morning before taking the dose and 2 hrs after dose until the end of the study. The average of the recorded data is provided in a graphical form in FIG. 7 (b). The average percentage change of patents when they visited the centre on day 3 and day 7 is provided below. The pain relief scale is a categorical scale having a positive progression from ‘No relief’ to ‘complete relief’. After the first dose the patient rated the pain relief every 30 minutes up to 6 hours for the assessment of Total pain relief 6 hours. The average pain relief score for the 6 hours test was recorded and represented in graphical form in FIG. 8 (a). The pain relief scale was included in the diary and the patient was required to give the pain relief every morning before taking the dose and 2 hours after dose until the end of the study. The average pain relief score for the seven days test was recorded in diary and represented in graphical form in FIG. 8 (b). After dosing the two stop watches were given to the patient. The patient had to stop one of the watches when they felt relief from pain. […]

Structure (SMILES): CC(=O)Nc1ccc(O)cc1 [Paracetamol]
- NRS score in six hours (FIG. 7(a), 0-10 scale, baseline around 6): 2
- NRS score by the end of 7th day (FIG. 7(b), 0-10 scale, baseline close to 6): ~1
- PRS score in six hours (FIG. 8(a), scale 1 No Relief to 5 Complete Relief, baseline around 1): 3
- PRS score by the end of 7th day (FIG. 8(b), scale 1-5, baseline close to 1): ~3
- Percentage change in pain intensity at 6 hours (NRS, 6 hours after first dose): 72.1%
- Percentage change in pain intensity in 7 days, day 3 (NRS, day 3): 24.8%
- Percentage change in pain intensity in 7 days, day 7 (NRS, day 7): 83.62%
- Percentage change in pain relief at 6 hours (PRS, 6 hours after first dose, threshold reached by the n patients in the same cell): > 75%
- Number of patients (n) with the stated percentage change in pain relief at 6 hours (PRS, 6 hours, of n = 44 per group, >75% change): 30
- Number of patients (n) with the stated percentage change in pain relief, Day 3 (PRS, Day 3, of n = 44 per group, >50% change): 20
- Percentage change in pain relief, Day 3 (PRS, Day 3, threshold reached by the n patients in the same cell): > 50%
- Number of patients (n) with the stated percentage change in pain relief, Day 7 (PRS, Day 7, of n = 44 per group, >75% change): 37
- Percentage change in pain relief, Day 7 (PRS, Day 7, threshold reached by the n patients in the same cell): > 75%
- Meaningful pain relief (average time to meaningful pain relief (MPR), censored at 6 hours): 4.51 h
- Perceptible pain relief (average time to perceptible pain relief (PPR), stop watch): 2.62 h
- PGIC score, Day 2 (scale 1 Very Much Improved to 7 Very Much Worse, Day 2): 3
- PGIC score, Day 3 (scale 1 Very Much Improved to 7 Very Much Worse, Day 3): 3
- PGIC score, Day 4 (scale 1 Very Much Improved to 7 Very Much Worse, Day 4): 3
- PGIC score, Day 5 (scale 1 Very Much Improved to 7 Very Much Worse, Day 5): 3
- PGIC score, Day 6 (scale 1 Very Much Improved to 7 Very Much Worse, Day 6): 3
- PGIC score, Day 7 (scale 1 Very Much Improved to 7 Very Much Worse, Day 7): 2
